Consider six compounds from PubChem BioAssay (NCI).

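The compound was tested at five concentrations on cells cultured in 96-well plates, with a 48-hour exposure period. TGI: concentration producing complete growth inhibition.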 Where only a bound is given, the exact number is not on record here.

Holding throughout (assay): growth of human tumour cells (NCI), 48 h
Test [1] relates to ACHN renal.
Test [2] concerns CAKI-1 renal.
Test [3] relates to CCRF-CEM leukemia.
The test system of test [4] is COLO 205 colon.
For test [5], the system named is NCI-H226 lung.
In test [6] the test system is NCI-H23 lung.
Test [7] deals with PC-3 prostate.
Test [8] has as its system RXF 393 renal.
The subject of test [9] is SF-539 CNS.
Test [10] deals with SK-MEL-28 melanoma.
Test [11] relates to UACC-257 melanoma.
Test [12] has as its system UO-31 renal.

`COC(=O)[C@H]1[C@H](C(=O)OC)[C@@H](C)c2c(ccc3c2[nH]c2ccccc23)[C@@H]1C`: the TGI in [1], in [2], in test [3], in test [4], in [5] and in test [6] was over 100 µM throughout. The TGI is over 100 µM in [7]; 82.9 µM in test [8]; over 100 µM in [9]; over 100 µM in test [10]; 66.3 µM in [11]; over 100 µM in [12].
`OC(c1cccs1)c1cc2ccccc2s1` (configuration not stated): the TGI in [1], in [2], in test [3], in test [4], in test [5] and in test [6] was over 10 µM each time. The TGI in test [7], in test [8], in test [9], in test [10], in [11] and in test [12] was over 10 µM each time.
For the compound `C[n+]1c2ccccc2c(CNC(CCC(N)=O)C(=O)O)c2ccccc21` (configuration not stated), the TGI came to 5.41 µM in test [1]; 7.53 µM in [2]; 3.29 µM in test [3]; 2.14 µM in test [4]; 18.3 µM in [5]; 13.1 µM in test [6]. Also, the TGI worked out at 10.8 µM in test [7]; 6.18 µM in test [8]; 5.61 µM in test [9]; 12.1 µM in test [10]; 12.9 µM in test [11]; 10.3 µM in test [12].
Regarding `CC1=C(C(=O)OCCO[N+](=O)[O-])C(c2ccccc2C(F)(F)F)C(C(=O)OC(C)C)=C(C)N1` (configuration not stated), the TGI is over 100 µM in test [1]; 52.3 µM in test [2]; over 100 µM in test [3]; 28.4 µM in test [4]; 27.4 µM in test [5]; 85.4 µM in test [6]. In addition, the TGI in test [7] came out at 34.5 µM; in test [8], 31.4 µM; in test [9], 31.6 µM; in [10], 33.5 µM; in test [11], 25.4 µM; in test [12] it was 33.6 µM.
For `O=C(O)c1c(-c2c3ccc(=O)cc-3oc3cc(O)ccc23)cc2ccccc2c1-c1ccccc1`, the TGI was over 100 µM in test [1]; over 100 µM in [2]; over 67.3 µM in test [3]; over 100 µM in [4]; over 100 µM in test [5]; over 100 µM in test [6]. The TGI in test [7], in [8], in [9], in test [10], in [11] and in test [12] was over 100 µM each time.
As to `Cn1c(-c2csc(-c3ccc(Cl)cc3)n2)n[nH]c1=S`, the TGI in test [1] was 34.8 µM; in [2], 56.4 µM; in test [3], over 100 µM; in test [4] it was over 100 µM; in [5] it was 57.3 µM; in [6], 75.5 µM. Moreover, the TGI is over 100 µM in [7]; 46.3 µM in [8]; 46.7 µM in test [9]; over 100 µM in test [10]; over 100 µM in [11]; 44.9 µM in test [12].
